{
  "source": "paper PMC4526861",
  "about": "“Inhibition of protein kinase C by isojacareubin suppresses hepatocellular carcinoma metastasis and induces apoptosis in vitro and in vivo” (Scientific Reports, 2015)",
  "key": {"[1]": {"tested_on": "phosphorylated c-Raf, MEK1/2 and ERK1/2", "assay": "Western blot of MAPK phosphorylation, QGY-7703", "format": "cell-based, human", "conditions": "QGY-7703, 24 h", "procedure": "(§1) Additional PKC targeting effects involved in the early response of major MAPK phosphorylation and the late response of HCC cell invasion and apoptosis were investigated. After 24 h of treatment with ISJ at the indicated concentrations, the total protein lysates from HCC cells were analyzed (Fig. 6). ISJ inhibited the phosphorylated, activated forms of c-Raf, MEK1/2 and ERK1/2 in the MAPK signaling pathway in both HepG2 and QGY-7703 cells (Fig. 6a). […] In contrast, E-cadherin expression was elevated, specifically at the highest concentration of ISJ (20 μM) (Fig. 6b). In addition, we analyzed several representative apoptotic proteins, including cleaved PARP (c-PARP), p53 and p21. […] These findings support our hypothesis that ISJ restrains HCC cell metastasis and induces HCC cell apoptosis by specifically inhibiting PKC.\n(§2) The total membrane and cytosolic proteins were extracted using a Membrane and Cytosol Protein Extraction Kit (Beyotime). Extracted proteins from cells or animal tissues were separated by SDS-PAGE and transferred to polyvinylidene difluoride (PVDF) membranes (Bio-Rad). The PVDF membranes were blocked with 5% nonfat milk and incubated with primary antibodies overnight, followed by incubation with a donkey anti-rabbit or anti-mouse secondary antibody (IRDye 800, LI-COR, Biosciences). […] The intensity was quantitative with Quantity One software (Bio-Rad). […]"}, "PKCα": {"molecular_target": "T1, PKCα (Homo sapiens, UniProt P17252)", "T1 construct": "Endogenous cPKC (PKCα) and nPKC (PKCδ, PKCε and PKCμ) in HepG2 lysates were pulled down; endogenous in cells; host or cells: HepG2", "assay": "Cell-based pull-down assay, PKCα", "format": "binding", "conditions": "HepG2 lysates", "procedure": "(§3) To identify whether ISJ and compound 7 target PKC in cells, we performed pull-down experiments using ISJ- and compound 7-coupled Sepharose beads with HepG2 cell lysates. Endogenous cPKC (PKCα) and nPKC (PKCδ, PKCε and PKCμ) in HepG2 lysates were pulled down by ISJ-coupled CNBr-activated Sepharose 4B beads (Fig. 5a).\n(§4) The control beads were prepared by incubating the beads with DMSO. Proteins (500 μg) from lysed HepG2 cells were mixed with either the control beads, compound 7-coupled beads, or ISJ-coupled beads (100 μL) in reaction buffer [50 mM Tris (pH 7.5), 5 mM EDTA, 150 mM NaCl, 1 mM DTT, 0.01% NP-40, 2 μg/mL BSA, 1 mM PMSF, 1% protease inhibitor mixture]. After incubation with gentle rocking overnight at 4 °C, the beads were washed 5 times with washing buffer [50 mM Tris (pH 7.5), 5 mM EDTA, 150 mM NaCl, 1 mM DTT, 0.01% NP-40, 1 mM PMSF], and binding was visualized by western blotting."}, "PKCζ": {"tested_on": "PKCζ", "assay": "Western blot of PKC isoform expression in cytosol and membrane", "format": "cell-based, human", "conditions": "HepG2, 24 h incubation", "procedure": "To further determine whether compound 7 and ISJ represent potential candidates for selective PKC expression inhibitors against hepatoma, the expression of PKC isoforms in HepG2 cells was characterized by western blotting. After 24 h of incubation with GFX, GO, ISJ and compound 7 at the indicated concentrations, PKC proteins from the cytosol and membrane of HepG2 cells were evaluated. ISJ and compound 7 treatments reduced both the cytosol and cell membrane expression of PKCζ.\nThe total membrane and cytosolic proteins were extracted using a Membrane and Cytosol Protein Extraction Kit (Beyotime). Extracted proteins from cells or animal tissues were separated by SDS-PAGE and transferred to polyvinylidene difluoride (PVDF) membranes (Bio-Rad). The PVDF membranes were blocked with 5% nonfat milk and incubated with primary antibodies overnight, followed by incubation with a donkey anti-rabbit or anti-mouse secondary antibody (IRDye 800, LI-COR, Biosciences). The images were captured using the Odyssey Infrared Imaging System (LI-COR, Biosciences), according to the manufacturer's instructions. The intensity was quantitative with Quantity One software (Bio-Rad). To ensure equal protein loading, each membrane was stripped and reprobed with an anti-β-actin antibody. All experiments were repeated independently no less than three times."}, "PKCδ": {"molecular_target": "T2, PKCδ (Homo sapiens, UniProt Q05655)", "T2 construct": "Endogenous cPKC (PKCα) and nPKC (PKCδ, PKCε and PKCμ) in HepG2 lysates were pulled down; endogenous in cells; host or cells: HepG2", "T2 sequence (Q05655 whole entry)": "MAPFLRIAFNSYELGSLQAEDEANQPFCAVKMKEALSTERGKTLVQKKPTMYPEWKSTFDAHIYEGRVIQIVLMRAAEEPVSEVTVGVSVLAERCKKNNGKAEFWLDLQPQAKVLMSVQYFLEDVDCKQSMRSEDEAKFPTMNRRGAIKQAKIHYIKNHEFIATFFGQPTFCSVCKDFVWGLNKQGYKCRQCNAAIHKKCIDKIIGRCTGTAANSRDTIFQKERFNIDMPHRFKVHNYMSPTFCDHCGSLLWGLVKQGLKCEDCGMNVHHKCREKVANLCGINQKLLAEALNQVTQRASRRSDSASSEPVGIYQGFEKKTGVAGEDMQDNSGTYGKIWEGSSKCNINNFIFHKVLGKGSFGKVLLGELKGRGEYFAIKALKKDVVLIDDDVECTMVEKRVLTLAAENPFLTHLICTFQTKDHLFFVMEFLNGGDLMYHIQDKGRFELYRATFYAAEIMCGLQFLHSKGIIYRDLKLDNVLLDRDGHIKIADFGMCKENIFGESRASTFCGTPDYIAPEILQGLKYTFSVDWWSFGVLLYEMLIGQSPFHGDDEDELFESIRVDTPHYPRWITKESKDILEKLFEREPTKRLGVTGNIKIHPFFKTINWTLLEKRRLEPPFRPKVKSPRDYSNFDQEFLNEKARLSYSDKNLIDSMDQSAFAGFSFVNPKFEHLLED", "assay": "Cell-based pull-down assay, PKCδ", "format": "binding", "conditions": "HepG2 lysates", "procedure": "as §3, §4"}, "c-PARP, p53 and p21": {"tested_on": "c-PARP, p53 and p21", "assay": "Western blot of apoptotic proteins, HepG2", "format": "cell-based, human", "conditions": "HepG2, 24 h", "procedure": "as §1, §2"}, "QSG-7701 hepatocytes": {"tested_on": "QSG-7701 hepatocytes", "assay": "Cell proliferation assay (CCK-8), QSG-7701 hepatocytes", "format": "cell-based, human", "conditions": "nonmalignant hepatocytes; mean ± SD", "procedure": "The human HCC cell lines QGY-7703, SMMC-7721 and HepG2 and the liver cell line QSG-7701 were supplied by the Cell Resource Center, Institute of Life Sciences, Chinese Academy of Medical Science. QGY-7703, SMMC-7721 and QSG-7701 cells were cultured in 1640 medium (Gibco), and HepG2 cells were cultured in DMEM medium (Gibco) at 37 °C in moist air supplemented with 5% CO2. All media were supplemented with 10% fetal bovine serum (FBS) and 100 Units/mL of penicillin/streptomycin.\nThe cell viability assay was performed as previously reported using a Cell Counting Kit-8 (CCK-8; Dojindo, Kumamoto, Japan)[33][34]. The relative cell viability was presented as % inhibition and calculated using the following formula: […]"}, "[2]": {"tested_on": "methicillin-resistant Staphylococcus aureus (MRSA)", "parameters": "method as in PMID 22942699", "conditions": "cited from earlier work"}, "[3]": {"tested_on": "phosphorylated c-Raf, MEK1/2 and ERK1/2", "assay": "Western blot of MAPK phosphorylation, HepG2", "format": "cell-based, human", "conditions": "HepG2, 24 h", "procedure": "as §1, §2"}, "HeLa-C3 cells": {"tested_on": "HeLa-C3 cells", "parameters": "method as in PMID 18614188", "conditions": "cited from earlier work"}, "HepG2 cells": {"tested_on": "HepG2 cells", "assay": "Apoptosis assay, Annexin V-FITC/PI flow cytometry", "format": "cell-based, human", "conditions": "48 h", "procedure": "To further explore the potential mechanisms of the antiproliferative effects induced by compound 7 and ISJ, Annexin V-FITC/PI double staining was performed to quantify cellular apoptosis by flow cytometry. HepG2 cells were cultured for 48 h in the absence or presence of compound 7 or ISJ at different concentrations (5 or 15 μM).\nHepG2 cells were seeded in six-well plates (5 × 10^5 cells/mL) for 24 h and then treated with various amounts of the compounds or 1% DMSO (as control). After 48 h, the cells floating in the medium were collected, and the adherent cells were detached with 0.05% trypsin, washed twice with cold PBS, and centrifuged at 1000 rpm for 5 min at 4 °C. Subsequently, HepG2 cells were gently resuspended in the binding buffer. Thereafter, the cells were stained using the Annexin V-FITC/PI apoptosis detection kit (BD Biosciences, San Jose, CA, USA). After incubation at room temperature for 15 min in the dark, the apoptotic cells were immediately analyzed by flow cytometry (FACS Calibur)."}},
  "data": [
    {"substance": "Isojacareubin [ISJ]", "values": [
      {"measurement": "phosphorylated, activated forms of c-Raf, MEK1/2 and ERK1/2", "setting": "[1]", "result": "inhibited"},
      {"measurement": "pull-down of endogenous PKCα by compound-coupled Sepharose 4B beads", "setting": "PKCα", "result": "pulled down"},
      {"measurement": "PKCζ expression in cytosol and cell membrane", "setting": "PKCζ", "result": "significantly decreased"},
      {"measurement": "pull-down of endogenous PKCδ by compound-coupled Sepharose 4B beads", "setting": "PKCδ", "result": "pulled down"},
      {"measurement": "expression levels of c-PARP, p53 and p21", "setting": "c-PARP, p53 and p21", "result": "increased"},
      {"measurement": "IC50", "setting": "QSG-7701 hepatocytes", "result": "47.67 ± 0.08", "unit": "µM"},
      {"measurement": "antibacterial activity against MRSA", "setting": "[2]", "result": "potent antibacterial compound"},
      {"measurement": "phosphorylated, activated forms of c-Raf, MEK1/2 and ERK1/2", "setting": "[3]", "result": "inhibited"},
      {"measurement": "growth of HeLa-C3 cells", "setting": "HeLa-C3 cells", "result": "inhibited the growth"},
      {"measurement": "number of apoptotic cells compared to the control group", "setting": "HepG2 cells; 5 μM", "result": "did not alter"},
      {"measurement": "percentage of apoptotic cells", "setting": "HepG2 cells; 15 μM", "result": "increased significantly"}
    ]}
  ]
}
